Experimental data as given in US6585964B1, “Method for preventing or minimizing biodegradation of a substance” (Biospherics Incorporated, priority 1999, dated 2003).
Square brackets hold non-standard residues; d marks the D form. Peptide text beside a SMILES is read from it. * marks the point of attachment. Cbz = O=C(OCc1ccccc1)*

Columns and labels:
carboxypeptidase = settings: compared with the L-enantiomorph, which is hydrolysed; cited from earlier work
sense of smell = assay: Human smell test of menthol enantiomers evaporated from acetone solution in Petri dishes; type: in vivo; settings: 0.001M solution in acetone, twenty drops, acetone evaporated at room temperature; six human subjects, test performed twice each
Protocol: The naturally-occurring optical isomer of menthol (1R,2S,5R)−(−) is used as a fragrance in a variety of products, such as perfumes, gums, and cigarettes. Both the natural and the unnatural (1S,2R,5S)−(+) optical isomer of menthol were obtained in 99% purity. A 0.001M solution of each enantiomer was prepared in reagent grade acetone. The solutions were allowed to equilibrate at room temperature for approximately one hour. Twenty drops of each solution were pipetted into separate glass Petri dishes. All glassware was clean. The acetone was then allowed to evaporate at room temperature. A human subject then smelled the two Petri dishes separately and recorded any sensations. The subject had been instructed to determine the presence of odor in the Petri dishes, and, if odor emanated from each, to determine whether the odors were the same or different. The test was performed twice on each of six human subjects, three female and three male. Each subject was given freshly prepared Petri dish servings to smell, and each immediately recorded his or hers impressions without communicating with the other subjects.

SMILES	action of carboxypeptidase (hydrolysis) on the compound (carboxypeptidase)	odor the same as or different from the natural form (sense of smell)	presence of odor (sense of smell)
O=C(CNC(=O)OCc1ccccc1)N[C@H](Cc1ccccc1)C(=O)O [carbobenzoxyglycyl-D-phenalalanine] (Cbz-Gly-[dF]-OH)	no measurable action	–	–
CC1CC[C@H](C(C)C)[C@@H](O)C1 (stereo partly drawn) [unnatural form of menthol, (1S,2R,5S)-(+)-Menthol]	–	the same as that of the natural form	had odor
